Reference: patent publication US8008299B2, “Urotensin II receptor antagonists” (Janssen Pharmaceutica, N.V., priority 2007, dated 2011)
Where two headings read alike, the source gives them in different places.

Tests used:
[1] = target: T1, UT receptors in HSMM (Human Skeletal Muscle Myoblasts) (Homo sapiens, UniProt Q9UKP6); test: Human Radioligand Binding Assay ((^125I)-U-II binding to intact HSMM)
T1 sequence (Q9UKP6 1-389): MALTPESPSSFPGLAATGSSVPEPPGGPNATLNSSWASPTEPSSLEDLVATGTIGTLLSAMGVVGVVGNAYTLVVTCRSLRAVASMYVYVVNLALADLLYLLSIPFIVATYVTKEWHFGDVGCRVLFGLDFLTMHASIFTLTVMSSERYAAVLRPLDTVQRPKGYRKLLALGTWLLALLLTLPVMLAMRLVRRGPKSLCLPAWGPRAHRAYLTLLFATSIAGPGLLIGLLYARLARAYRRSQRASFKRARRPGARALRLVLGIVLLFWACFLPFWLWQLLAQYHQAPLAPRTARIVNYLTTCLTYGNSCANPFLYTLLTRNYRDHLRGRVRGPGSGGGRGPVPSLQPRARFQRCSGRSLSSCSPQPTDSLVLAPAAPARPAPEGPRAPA

[2] = target: T2, Human UII (U-II receptor) in 6D9 human rhabdomyosarcoma cells (Homo sapiens, UniProt Q9UKP6); test: Human UII Calcium Mobilization Assay; format: cell-based; conditions: 6D9 human rhabdomyosarcoma cells, FLIPR TETRA, average; read-out: Human UII Ca+ Mobilization Average IC50
T2 construct: 6D9: isolated by dilution subcloning of RMS13 cells, ATCC® Number: CRL-2061; host or cells: 6D9 human rhabdomyosarcoma cells (subclone of RMS13)
T2 sequence (Q9UKP6 1-389): T1 sequence (Q9UKP6 1-389)
Procedure: 25 μL of dye solution was added to the wells such that the final liquid volume before agonist/antagonist treatment was 50 μL for all assays. The cell plates were incubated at 37° C. for 45 minutes and the fluorescence intensity was measured on a Fluorometric Imaging Plate Reader (FLIPR^TETRA, Molecular Devices, Sunnyvale, Calif.).
Antagonist and agonist U-II were added at room temperature on the FLIPR^TETRA, and the fluorescence intensity before and after addition was measured over a period of 4 minutes. The dye incubation time and temperature as well as instrument setting was adjusted so the fluorescence intensity could be compared between plates on the same day. EC50 and IC50 were analyzed using GraphPad Prism 4 software (GraphPad Software Inc., San Diego, Calif.).
For assays, U-II agonist, U-II antagonist and urantide were diluted with HBSS/HEPES containing 0.01% FBS.
Test compounds were dissolved in DMSO at 10 mM concentration. The serial dilutions were carried out in HBSS/HEPES. The highest final DMSO concentration was at 0.1%.

[3] = target: T3, rat GPR14 (U-II receptor) (Rattus norvegicus, UniProt P49684); test: Rat UII Calcium Mobilization FLIPR Assay; format: cell-based; conditions: CHO cells transfected with rat GPR14; antagonist activity after 5 min incubation vs agonist (Ac)-CFWK(2-NaI)C-NH2 at 1 nM
T3 construct: expressed in transfected cells
T3 sequence (P49684 1-386): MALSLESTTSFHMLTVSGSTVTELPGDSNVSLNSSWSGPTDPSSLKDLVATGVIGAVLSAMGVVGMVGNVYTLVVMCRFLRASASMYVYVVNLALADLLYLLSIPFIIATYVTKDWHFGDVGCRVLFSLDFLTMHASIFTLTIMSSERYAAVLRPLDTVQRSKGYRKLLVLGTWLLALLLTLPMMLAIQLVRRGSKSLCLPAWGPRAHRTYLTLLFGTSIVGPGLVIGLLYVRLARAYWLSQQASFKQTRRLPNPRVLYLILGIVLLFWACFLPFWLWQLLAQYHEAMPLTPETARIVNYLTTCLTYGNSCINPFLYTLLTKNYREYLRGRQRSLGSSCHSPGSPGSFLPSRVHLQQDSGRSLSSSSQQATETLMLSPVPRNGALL
Source text: To derive these cells, the complete coding sequence of rat U-II (Genbank Accession No. U32673) was amplified by nested PCR from rat heart marathon-Ready cDNA. […] The PCR products were cloned into pcDNA3 (Invitrogen) digested with EcoR I and Xba I. Clones containing rat U-II receptor were verified by complete sequencing of the U-II receptor insert to ensure a lack of PCR-introduced errors. The constructed vector was transfected into CHO cells by using lipofectamine (GIBCO BRL). CHO cells with high expression of rat U-II receptor were selected and established as stable cell lines by using G418. CHO cells were seeded at 25,000 cells per well into 96-well, black-wall, clear-bottom microtiter plates 24 h before assay. Cells in culture media (DMEM/F12 containing 15 mM HEPES, L-glutamine, pyridoxine hydrochloride; 10% fetal bovine serum; 1 mg/mL G418 sulfate; antibiotic-antimycotic; pH 7.4) were loaded with proprietary dye, from the FLIPR Calcium Assay Kit (Molecular Devices), prepared in assay buffer (Hanks Balanced Salts Solution, 20 mM HEPES, 0.1% BSA, 2.5 mM probenecid, pH 7.4), and incubated for 1 h at 37° C. Calcium mobilization determinations were performed at room temperature (23° C.).

SMILES	Ki [1] [nM]	IC50 [2] [nM]	IC50 [3] [nM]	Ki ([1]; read-out: Human UII Average Binding Ki, intact HSMM, 0.150 nM (^125I)-U-II, 3 h, 25° C.) [nM]
CCN1CCN(c2cccc3c2CN(C(CC2CCN(Cc4ccccc4)CC2)c2ccc(OC)c(OC)c2)C3=O)CC1 (stereo not drawn) [Cpd 13, 2-[2-(1-benzyl-piperidin-4-yl)-1-(3,4-dimethoxy-phenyl)-ethyl]-4-(4-ethyl-piperazin-1-yl)-2,3-dihydro-isoindol-1-one]	> 300	1980	167	
CCN1CCN(c2cccc3c2CN([C@H](CCCN(Cc2ccccc2)Cc2ccccc2)c2ccc(OC)c(OC)c2)C3=O)CC1 [Cpd 73, 2-[(1R)-4-dibenzylamino-1-(3,4-dimethoxy-phenyl)-butyl]-4-(4-ethyl-piperazin-1-yl)-2,3-dihydro-isoindol-1-one]	53	178	26	
CCNCCC[C@H](c1ccc(OC)c(OC)c1)N1Cc2c(cccc2N2CCN(CC)CC2)C1=O [Cpd 69, 2-[(1R)-1-(3,4-dimethoxy-phenyl)-4-ethylamino-butyl]-4-(4-ethyl-piperazin-1-yl)-2,3-dihydro-isoindol-1-one]	199	> 10000	820	
CCN1CCN(c2cccc3c2CN([C@H](CCCNS(=O)(=O)c2cccs2)c2ccc(OC)c(OC)c2)C3=O)CC1 [Cpd 84, thiophene-2-sulfonic acid {(4R)-4-(3,4-dimethoxy-phenyl)-4-[4-(4-ethyl-piperazin-1-yl)-1-oxo-1,3-dihydro-isoindol-2-yl]-butyl}-amide]		8	1	4
CCN(CC)CCC[C@H](c1ccc(OC)c(OC)c1)N1Cc2c(cccc2N2CCN(CC)CC2)C1=O [Cpd 68, 2-[(1R)-4-diethylamino-1-(3,4-dimethoxy-phenyl)-butyl]-4-(4-ethyl-piperazin-1-yl)-2,3-dihydro-isoindol-1-one]	> 300	2040	178	
COc1ccc([C@@H](CCCSc2nnnn2C)N2Cc3c(cccc3N3CCNCC3)C2=O)cc1OC [Cpd 24, 2-[(1R)-1-(3,4-dimethoxy-phenyl)-4-(1-methyl-1H-tetrazol-5-ylsulfanyl)-butyl]-4-piperazin-1-yl-2,3-dihydro-isoindol-1-one]		1550	165	
CCN1CCN(c2cccc3c2CN([C@H](CCCOCc2cccc(C)c2)c2ccc(OC)c(OC)c2)C3=O)CC1 [Cpd 55, 2-[(1R)-1-(3,4-dimethoxy-phenyl)-4-(3-methyl-benzyloxy)-butyl]-4-(4-ethyl-piperazin-1-yl)-2,3-dihydro-isoindol-1-one]		> 10000	2150	
CCN1CCN(c2cccc3c2CN([C@H](CCCN(C)S(=O)(=O)c2cccs2)c2ccc(OC)c(OC)c2)C3=O)CC1 [Cpd 62, thiophene-2-sulfonic acid {(4R)-4-(3,4-dimethoxy-phenyl)-4-[4-(4-ethyl-piperazin-1-yl)-1-oxo-1,3-dihydro-isoindol-2-yl]-butyl}-methyl-amide]		88	7	
CCN1CCN(c2cccc3c2CN([C@H](CCCOCc2cccc(F)c2)c2ccc(OC)c(OC)c2)C3=O)CC1 [Cpd 52, 2-[(1R)-1-(3,4-dimethoxy-phenyl)-4-(3-fluoro-benzyloxy)-butyl]-4-(4-ethyl-piperazin-1-yl)-2,3-dihydro-isoindol-1-one]		> 10000	3130	
COc1ccc([C@@H](CCCN(C)S(=O)(=O)c2cccs2)N2Cc3c(cccc3N3CCN(C)CC3)C2=O)cc1OC [Cpd 26, thiophene-2-sulfonic acid {(4R)-4-(3,4-dimethoxy-phenyl)-4-[4-(4-methyl-piperazin-1-yl)-1-oxo-1,3-dihydro-isoindol-2-yl]-butyl}-methyl-amide]		337	16	
CCN1CCN(c2cccc3c2CN([C@H](CCCNc2ccc4ccccc4n2)c2ccc(OC)c(OC)c2)C3=O)CC1 [Cpd 89, 2-[(1R)-1-(3,4-dimethoxy-phenyl)-4-(quinolin-2-ylamino)-butyl]-4-(4-ethyl-piperazin-1-yl)-2,3-dihydro-isoindol-1-one]	> 300		260	
CCN1CCN(c2cccc3c2CN([C@H](CCc2ccc4c(n2)NCCC4)c2ccc(OC)c(OC)c2)C3=O)CC1 [Cpd 86, 2-[(1R)-1-(3,4-dimethoxy-phenyl)-3-(5,6,7,8-tetrahydro-[1,8]naphthyridin-2-yl)-propyl]-4-(4-ethyl-piperazin-1-yl)-2,3-dihydro-isoindol-1-one]	386		< 1000	

Continued by falling IC50 [3], values first:

Ki [1] [nM]	IC50 [2] [nM]	IC50 [3] [nM]	SMILES	Ki ([1]; read-out: Human UII Average Binding Ki, intact HSMM, 0.150 nM (^125I)-U-II, 3 h, 25° C.) [nM]
154	1210	25	COc1ccc([C@@H](CCCOc2ccccc2)N2Cc3c(cccc3N3CCN(C4CC4)CC3)C2=O)cc1OC [Cpd 28, 4-(4-cyclopropyl-piperazin-1-yl)-2-[(1R)-1-(3,4-dimethoxy-phenyl)-4-phenoxy-butyl]-2,3-dihydro-isoindol-1-one]	
13	316	19	CCN1CCN(c2cccc3c2CN([C@H](CCCNc2nccc(C)n2)c2ccc(OC)c(OC)c2)C3=O)CC1 [Cpd 23, 2-[(1R)-1-(3,4-dimethoxy-phenyl)-4-(4-methyl-pyrimidin-2-ylamino)-butyl]-4-(4-ethyl-piperazin-1-yl)-2,3-dihydro-isoindol-1-one]	
23	482	7	CCN1CCN(c2cccc3c2CN([C@H](CCCOc2ccccc2)c2ccc(OC)c(OC)c2)C3=O)CC1 [Cpd 50, 2-[(1R)-1-(3,4-dimethoxy-phenyl)-4-phenoxy-butyl]-4-(4-ethyl-piperazin-1-yl)-2,3-dihydro-isoindol-1-one]	
10		6	CCN1CCN(c2cccc3c2CN([C@H](CCCN(Cc2ccc(F)cc2)C(C)=O)c2ccc(OC)c(OC)c2)C3=O)CC1 [Cpd 88, N-{(4R)-4-(3,4-dimethoxy-phenyl)-4-[4-(4-ethyl-piperazin-1-yl)-1-oxo-1,3-dihydro-isoindol-2-yl]-butyl}-N-(4-fluoro-benzyl)-acetamide]	
37		6	CCN1CCN(c2cccc3c2CN([C@H](CCCc2ccccc2)c2ccc(OC)c(OC)c2)C3=O)CC1 [Cpd 87, 2-[(1R)-1-(3,4-dimethoxy-phenyl)-4-phenyl-butyl]-4-(4-ethyl-piperazin-1-yl)-2,3-dihydro-isoindol-1-one]	
43	74	4	CCN1CCN(c2cccc3c2CN([C@H](CCCN(C)Cc2ccco2)c2ccc(OC)c(OC)c2)C3=O)CC1 [Cpd 94, 2-[(1R)-1-(3,4-dimethoxy-phenyl)-4-(furan-2-ylmethyl-methyl-amino)-butyl]-4-(4-ethyl-piperazin-1-yl)-2,3-dihydro-isoindol-1-one]	
34	71	4	CCN1CCN(c2cccc3c2CN([C@H](CCCN(C)Cc2ccccc2)c2ccc(OC)c(OC)c2)C3=O)CC1 [Cpd 3, 2-[(1R)-4-(benzyl-methyl-amino)-1-(3,4-dimethoxy-phenyl)-butyl]-4-(4-ethyl-piperazin-1-yl)-2,3-dihydro-isoindol-1-one]	
